Results taken from patent publication EP0552379B1, “DIHYDROPYRIDINE DERIVATIVES, AND PROCESS FOR THEIR PREPARATION” (FUJISAWA PHARMACEUTICAL CO., LTD., priority 1991, dated 1993).

Tests used:
Wistar rats = assay: Hypotensive effect (mean arterial pressure, femoral artery, intravenous administration); assay type: in vivo; details: dose 1.0 mg/kg, intravenously
Method: Three Wistar rats were used per group. Each animal was placed in a cage sized to the body after cannulation of catheters into the femoral artery and vein under ether anesthesia. Blood pressure was measured in the femoral artery by means of a pressure transducer and recorded as electrically integrated values of mean arterial pressure. Heart rate was counted from instant arterial pressure pulses by running the record paper at a faster speed periodically.
The test compound was administered intravenously through a catheter cannulated in the femoral vein more than 2 hours later the completion of the operation.

β receptor = β receptor binding (^3H-Dihydroalprenolol (DHA) binding to crude cardiac microsomal membrane); set-up: species or system SD strain rats; details: [^3H]DHA 1nM, rat heart microsomal membrane, 25°C, 30 minutes
Method: (3) β receptor binding Test methods (a) Crude cardiac microsomal membrane preparation SD strain rats were sacrificed by decapitation. The heart was removed and homogenized in buffer (0.25M sucrose, 10mM MOPS, pH7.4) by using Polytoron (Kinematica). The homogenate was homogenized by teflon glass homogenizer. The homogenate was centrifuged (1,000g x 10 min) to remove tissue clumps and the supernatant was centrifuged (10,000g x 10 min) twice. The supernatant was centrifuged (100,000g x 60 min) to yield pellets. The pellets were resuspended in buffer (50mM Tris-HCl, pH7.4), which were referred to as crude microsomal membrane fractions. The obtained suspensions were stored at -80°C until use. (b) ^3H-Dihydroalprenolol (DHA) binding to preparative membrane Frozen crude microsomal membrane fractions were thawed. [^3H) DHA (1nM) was incubated with 50 µl of the membrane preparation at 25°C for 30 minutes in a final volume of 200 µl. At the end of the incubation period, reaction mixture was quickly filtrated over a Whatman GF/C glass filter under aspiration. The filters were washed 5 times with 3ml of the buffer (50mM Tris-HCl, pH7.4). The radioactivity was counted in 6ml of Clear-sol I in Packard scintillation counter (Packard TRI-CARB 4530).

`COC(=O)C1=C(C(F)(F)F)NC(C)=C(C(=O)OCCc2ccc(OCC(O)CNC(C)C)cc2)C1c1cccc([N+](=O)[O-])c1` (centres unmarked) [Dihydropyridine A, 2-{p-(2-hydroxy-3-isopropylaminopropoxy)phenyl}ethyl 1,4-dihydro-3-methoxycarbonyl-6-methyl-4-m-nitrophenyl-2-trifluoromethylpyridine-5-carboxylate] was tested, and the “Maximum change of blood pressure” value (Wistar rats) was -39(%) and the Ki (β receptor) was 507 nM.
